The results in this text go back to US7052714B1, “Ophthalmic adhesive preparations for percutaneous adsorption” (Senju Pharmaceutical Co., LTD, priority 1999, dated 2006).

The nature of data set [1]: in vivo. To be noted: male, Wistar/ST, rat.
Experimental: (§1) 0.5-ml blood sampling was performed over time through a sampling port of the cannula placed on the occipital region of the rat's head. For measurement of transfer of the drug to the ocular tissues, rats were euthanized with an excess amount of sodium pentobarbital solution and the ocular tissues were removed. The tissues were pretreated, extracted and measured to determine the concentration of the drug by HPLC.
(§2) Determination of the concentration of N-(4-fluorophenylsulfonyl)-L-valyl-L-leucinal in the samples was carried out by HPLC under the following conditions.
The conditions of data set [2]: male, Wistar/ST, rat, in vivo.
Experimental: as §1, §2
A short description of data set [3]: In vivo test-2: intravenous administration experiment. Also on record: species or system Wistar rats. To be noted: intravenous injection 2 mg/kg, rat, 15 minutes after injection. How it is done:
An intravenous administration experiment was carried out using 5 male Wistar rats (body weight approx. 600 g: 592±34 g) by administering 2 mg/kg SJA6017 through the tail vein of the animals under pentobarbital anesthesia. For the administration, a solution was used containing 10 mg SJA6017 dissolved in 10 ml mixture of ethanol/PEG400/water (1/2/1). Fifteen minutes after the intravenous administration, the animals were sacrificed, the blood was collected through the abdominal aorta, and the plasma separated. The eyes were excised at the same time. Each of the eyes was separated into the aqueous humor, the lens and the other tissues (consisting of the cornea, the sclera, the iris-ciliary body, the vitreous body and the retina-choroid), and corresponding tissues separated from the 10 eyes were combined, respectively, to make a sample.

Data set [4] is described as follows: In vivo test-1: transfer of drugs from transdermal patches to the plasma and ocular tissues.
Experimental: as §1, §2
A short description of data set [5]: In vivo test-2: SJA6017 transdermal patch, transfer to the plasma and ocular tissues. Conditions: transdermal application, 12 hours after application. Also noted: species or system Wistar/ST rats. An excerpt: A study of SJA6017-containing transdermal patch according to the formula below was made for examining transfer of SJA6017 from the patch to the plasma and to the ocular tissues, and comparison of the results with those from intravenous injection was also made.
The hair was removed under anesthesia with a clipper and a shaver carefully to avoid injuring the skin. A SJA6017 transdermal patch having a drug-containing layer according to the above formula with the size of 5.0×6.0 cm (30 cm^2) was applied to the animals (n=10) of the percutaneous administration group on the abdominal skin and secured in position with a supporting tape to prevent it from falling. After 12 hours of application, the animals were sacrificed and the blood was collected from the abdominal aorta, and the plasma separated. The eyes were excised at the same time. Each of the eyes was separated into the aqueous humor, the lens and the other tissues (consisting of the cornea, the sclera, the iris-ciliary body, the vitreous body and the retina-choroid), and corresponding tissues separated from the 20 eyes were combined, respectively, to make a sample.

The mark [6] stands for this setting: male, Wistar/ST, rat, plasma, other: transdermal patch applied on the abdominal skin, 10 cm^2.
Where [7] appears, read: male, Wistar/ST, rat, plasma, other: transdermal patch applied on the abdominal skin, 10 cm^2 patch.

Values joined by “and” are separate entries in the source; they are usually repeats but may differ in a detail not shown here. Identical values can stand only once. Like-named read-outs stand apart in the source and are kept apart here.

Take `C[C@]12C=CC(=O)C=C1CC[C@@H]1[C@@H]2[C@@H](O)C[C@@]2(C)[C@H]1CC[C@]2(O)C(=O)CO` [Prednisolone, prednisolone]: in data set [1], the concentration at 0 h worked out at 0 ng/mL; the concentration at 2 h came out at 220 ng/mL; the concentration at 4 h amounted to 288 ng/mL; the concentration at 6 h was 70 ng/g and 385 ng/mL. In data set [1], this compound returned a concentration at 8 h of 608 ng/mL, a concentration at 12 h of 148 ng/mL, a concentration at 18 h of 99 ng/mL and a concentration at 24 h of 77 ng/mL. The “time after application at which plasma concentration reached the peak” value in data set [2] amounted to 8 h.

`CC(C)C[C@@H](C=O)NC(=O)[C@@H](NS(=O)(=O)c1ccc(F)cc1)C(C)C` [SJA6017, N-(4-fluorophenylsulfonyl)-L-valyl-L-leucinal]: in data set [3], the “Intraocular concentration, itemized: Aqueous humor” value is given as “not detected”; the “Intraocular concentration, itemized: Lens” value is on record as “not detected”; the “Other ocular tissues: ratio to plasma concentration (100%)” value is on record as “(27.8%)*^2”. Also, the Eyeball/plasma ratio in data set [3] (2 mg/kg) was determined as 13%. The concentration at 15 min in data set [3] (male, Wistar, eye (ocular tissues), read-out: Intraocular concentration) is 16 ng/g. Also, the Kp at 15 min in data set [3] (male, Wistar, eyeball/plasma, read-out: Eyeball/plasma ratio) came out at 0.13. Further, in data set [3] (male, Wistar, plasma, read-out: Plasma concentration), the concentration at 15 min is 120 ± 16 ng/mL. In data set [3] (male, Wistar, read-out: Intraocular concentration, itemized: Other ocular tissues (cornea, sclera, iris-ciliary body, vitreous body, retina-choroid)), the concentration at 15 min was 33.4 ng/g. Besides, the “time after application at which plasma concentration reached the peak” value in data set [4] (SJA6017 patch No. S4, 10 cm^2, rat) was 12 h. Moreover, the “plasma concentration 24 hours after application relative to its peak” value in data set [4] (SJA6017 patch No. S4, 10 cm^2, rat, 24 hours) is reported as “about 85%”. In data set [4] (setting [6]), this compound showed a concentration at 8 h of 50 ng/mL, a concentration at 12 h of 114 ng/mL, a concentration at 18 h of 68 ng/mL and a concentration at 24 h of 98 ng/mL. In data set [4] (setting [7]), the concentration at 0 h amounted to 0 ng/mL, the concentration at 2 h was found to be 30 ng/mL, the concentration at 4 h was determined as 36 ng/mL and the concentration at 6 h came to 58 ng/mL. Also, the concentration at 12 h in data set [5] (male, Wistar/ST, eye (ocular tissues), other: transdermal patch applied on the abdominal skin, 30 cm^2 patch, 5 W/W% SJA6017 patch 30 cm^2, rat, read-out: Intraocular concentration) came out at 7.2 ng/g. The concentration at 12 h in data set [5] (male, Wistar/ST, lens, other: transdermal patch applied on the abdominal skin, 30 cm^2 patch, SJA6017 patch 30 cm^2, rat, read-out: Intraocular concentration, itemized: Lens) is 1.1 ng/g. Further, the concentration at 12 h in data set [5] (male, Wistar/ST, other: transdermal patch applied on the abdominal skin, 30 cm^2 patch, SJA6017 patch 30 cm^2, rat, read-out: Intraocular concentration, itemized: Other ocular tissues (cornea, sclera, iris-ciliary body, vitreous body, retina-choroid)) was determined as 13.8 ng/g. Also, the concentration at 12 h in data set [5] (male, Wistar/ST, plasma, other: transdermal patch applied on the abdominal skin, 30 cm^2 patch, 5 W/W% SJA6017 patch 30 cm^2, rat, read-out: Plasma concentration) is 47 ± 12 ng/mL. For the same compound, in data set [5] (male, Wistar/ST, rat, eyeball/plasma, other: transdermal patch applied on the abdominal skin, 30 cm^2 patch, SJA6017 patch 30 cm^2, rat, read-out: Eyeball/plasma ratio), the Kp at 12 h was around 0.16. Moreover, in data set [5] (SJA6017 patch 30 cm^2, rat), the “Intraocular concentration, itemized: Aqueous humor” value is reported as “not detected”; the “Lens: ratio to plasma concentration (100%)” value is “(2.3%)*^2”; the “Other ocular tissues: ratio to plasma concentration (100%)” value is on record as “(29.6%)*^2”.
